The values that follow come from patent US9247759B2, “Identification of human T2R receptors that respond to bitter compounds that elicit the bitter taste in compositions, and the use thereof in assays to identify compounds that inhibit (block) bitter taste in compositions and use thereof” (SENOMYX, INC., priority 2007, dated 2016).

pIC50: −log10 of the molar value.

Test [1] addresses T1, hT2R14 (Homo sapiens (Human), UniProt Q9NYV8). In words: hT2R14 antagonist high-throughput FLIPR assay, stable cell line with G16g44, agonist aristolochic acid. Format: cell-based. Conditions: read-out: IC50 on hT2R14 bitter receptor. The procedure, abridged: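 HEK293 cells stably expressing hT2R14 with chimeric G16g44 were stimulated with aristolochic acid (3 μM), giving 70-80% of maximal receptor activity. Test compounds were added together with the agonist, and antagonism was read as fluorescent calcium signal on FLIPR.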

Test [2] deals with hT2R4 (Homo sapiens (Human), UniProt Q9NYW5). Nature of the test: hT2R panel inhibition, transient HEK293 G16g44, agonist Chloroquine pH6.5 5 mM. Format: cell-based. The following applies: HEK293, compound at 25 μM; receptor activated to EC80 with the corresponding agonist; class symbols; read-out: screening result against bitter receptor 4. The protocol:
Specifically, in order to evaluate the inhibitory selectivity of the Compound C compound, this compound was tested against 22 human T2Rs which were deorphaned by Senomyx. These receptors and the bitter ligands that activate these human T2Rs are reported in earlier patent applications which are incorporated by reference herein. These 22 human T2Rs are hT2R1, 3, 4, 5, 7, 8, 9, 10, 13, 14, 16, 44, 51, 54, 55, 61, 63, 64, 65, 67, 71 and 75. The amino acid and nucleic acid sequences of all of these T2Rs may be found in these earlier patent applications. These human T2Rs were each individually transiently transfected into HEK293 cells that stably express the promiscuous G protein G16g44 and functional assays were effected using these receptors as disclosed in these same patent applications. […] The ligands were used at EC80 concentration levels. The list of bitter ligands utilized and the tested ligand concentrations are contained in Table 5 of this example.
Relating to the foregoing, FIG. 5 contains experimental results wherein Compound C was tested with different agonist compounds. The inhibition activity is represented by the reduction of receptor activity in the presence of Compound C. […] These 13 hT2Rs are hT2R3, 7, 10, 14, 16, 44, 51, 55, 61, 63, 64, 65, and 71.

The target of test [3] is hT2R16 (Homo sapiens (Human), UniProt Q9NYV7). Nature of the test: hT2R panel inhibition, transient HEK293 G16g44, agonist Salicin 1 mM. The test is classed as cell-based. The following applies: HEK293, compound at 25 μM; receptor activated to EC80 with the corresponding agonist; read-out: screening result against bitter receptor 16. The gist of the method: (§1)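 Here, inhibition reflects how much the test compound lowers activation of a transiently expressed human bitter receptor stimulated at EC80. Twenty-two such receptors were tested separately.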
Sequence of hT2R16 (Q9NYV7 whole entry): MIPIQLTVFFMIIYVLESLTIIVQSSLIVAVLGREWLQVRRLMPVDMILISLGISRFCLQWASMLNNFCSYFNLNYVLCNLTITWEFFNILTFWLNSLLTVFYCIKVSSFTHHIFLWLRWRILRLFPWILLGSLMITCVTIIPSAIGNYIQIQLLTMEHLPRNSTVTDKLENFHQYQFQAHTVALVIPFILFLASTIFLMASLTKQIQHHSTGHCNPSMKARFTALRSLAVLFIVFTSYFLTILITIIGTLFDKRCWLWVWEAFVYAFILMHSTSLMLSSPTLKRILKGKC

Test [4] has as its system hT2R55. In words: hT2R panel inhibition, transient HEK293 G16g44, agonist Cinchonine 150 μM. Format: cell-based, human. The following applies: compound at 25 μM; receptor activated to EC80 with the corresponding agonist. The gist of the method: as §1
For test [5], the target named is T1, hT2R14. In words: hT2R panel inhibition, transient HEK293 G16g44, agonist Aristolochic Acid 2 μM. Format: cell-based. The following applies: HEK293, compound at 25 μM; receptor activated to EC80 with the corresponding agonist; read-out: screening result against bitter receptor 14. The procedure, abridged: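 Each hT2R was transiently transfected into HEK293 cells stably expressing G16g44 and assayed functionally for inhibition of agonist response. Agonists were applied at EC80: andrographolide at 0.5 mM for hT2R8 and aristolochic acid at 2 μM for hT2R14.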

Test [6] concerns the target hT2R71 (Homo sapiens (Human), UniProt P59536). In words: hT2R panel inhibition, transient HEK293 G16g44, agonist Picric Acid 10 μM. Format: cell-based. The following applies: HEK293, compound at 25 μM; receptor activated to EC80 with the corresponding agonist; read-out: screening result against bitter receptor 71. The gist of the method: as §1
In test [7] the test system is hT2R44. Nature of the test: hT2R panel inhibition, transient HEK293 G16g44, agonist Denatonium 0.5 μM. The following applies: compound at 25 μM; receptor activated to EC80 with the corresponding agonist. The test is classed as cell-based, human. The procedure, abridged: as §1
In test [8] the target is hT2R3 (Homo sapiens (Human), UniProt Q9NYW6). Nature of the test: hT2R panel inhibition, transient HEK293 G16g44, agonist Chloroquine pH6.5 50 μM. The test is classed as cell-based. Conditions: HEK293, compound at 25 μM; receptor activated to EC80 with the corresponding agonist; read-out: screening result against bitter receptor 3. The procedure, abridged:
as §1

Test [9] deals with hT2R64 (Homo sapiens (Human), UniProt P59538). Nature of the test: hT2R panel inhibition, transient HEK293 G16g44, agonist Aristolochic Acid 1 μM. Format: cell-based. The following applies: HEK293, compound at 25 μM; receptor activated to EC80 with the corresponding agonist; read-out: screening result against bitter receptor 64. The gist of the method: as §1
Sequence of hT2R64 (P59538 whole entry): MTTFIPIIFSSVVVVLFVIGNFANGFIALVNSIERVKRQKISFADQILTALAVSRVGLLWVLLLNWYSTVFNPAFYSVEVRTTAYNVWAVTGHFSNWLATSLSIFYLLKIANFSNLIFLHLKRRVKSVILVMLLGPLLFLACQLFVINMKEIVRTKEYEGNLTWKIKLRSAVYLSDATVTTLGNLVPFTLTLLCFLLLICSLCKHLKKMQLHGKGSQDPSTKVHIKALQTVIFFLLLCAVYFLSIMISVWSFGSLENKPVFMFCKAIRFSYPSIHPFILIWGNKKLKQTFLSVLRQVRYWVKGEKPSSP
The subject of test [10] is hT2R63. Nature of the test: hT2R panel inhibition, transient HEK293 G16g44, agonist Caffeine 1 mM or Andrographolide 100 μM. The test is classed as cell-based, human. The following applies: compound at 25 μM; receptor activated to EC80 with the corresponding agonist. The procedure, abridged: as §1
The target of test [11] is hT2R61 (Homo sapiens (Human), UniProt P59537). Nature of the test: hT2R panel inhibition, transient HEK293 G16g44, agonist Aristolochic Acid 25 nM. The following applies: HEK293, compound at 25 μM; receptor activated to EC80 with the corresponding agonist; read-out: screening result against bitter receptor 61. Format: cell-based. The gist of the method: as §1
Sequence of hT2R61 (P59537 whole entry): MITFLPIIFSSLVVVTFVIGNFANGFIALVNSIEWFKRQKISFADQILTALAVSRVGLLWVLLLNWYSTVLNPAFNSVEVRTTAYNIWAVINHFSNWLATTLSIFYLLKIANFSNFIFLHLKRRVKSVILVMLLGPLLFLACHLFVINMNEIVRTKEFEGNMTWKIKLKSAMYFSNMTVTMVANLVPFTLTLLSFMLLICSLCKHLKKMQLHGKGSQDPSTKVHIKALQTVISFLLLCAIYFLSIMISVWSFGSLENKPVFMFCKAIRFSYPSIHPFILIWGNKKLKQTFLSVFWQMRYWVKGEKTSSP
Test [12] has as its system hT2R65. In words: hT2R panel inhibition, transient HEK293 G16g44, agonist Oleuropein 1 mM. The test is classed as cell-based, human. Conditions: compound at 25 μM; receptor activated to EC80 with the corresponding agonist. The procedure, abridged: as §1
The target in test [13] is hT2R5 (Homo sapiens (Human), UniProt Q9NYW4). In words: hT2R panel inhibition, transient HEK293 G16g44, agonist Picoline 10 mM. Format: cell-based. The following applies: HEK293, compound at 25 μM; receptor activated to EC80 with the corresponding agonist; read-out: screening result against bitter receptor 5. The procedure, abridged: as §1
Sequence of hT2R5 (Q9NYW4 whole entry): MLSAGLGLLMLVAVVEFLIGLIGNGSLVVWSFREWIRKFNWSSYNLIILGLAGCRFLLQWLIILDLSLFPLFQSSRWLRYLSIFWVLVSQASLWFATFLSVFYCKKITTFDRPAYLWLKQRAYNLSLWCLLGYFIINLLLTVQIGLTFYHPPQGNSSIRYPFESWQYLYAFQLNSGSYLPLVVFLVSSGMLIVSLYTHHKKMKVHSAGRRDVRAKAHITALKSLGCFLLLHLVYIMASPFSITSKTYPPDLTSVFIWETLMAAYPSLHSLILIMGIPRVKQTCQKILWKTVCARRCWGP
The target in test [14] is hT2R7 (Homo sapiens (Human), UniProt Q9NYW3). Nature of the test: hT2R panel inhibition, transient HEK293 G16g44, agonist Chloroquine pH6.5 10 mM. Format: cell-based. Conditions: HEK293, compound at 25 μM; receptor activated to EC80 with the corresponding agonist; read-out: screening result against bitter receptor 7. The gist of the method:
as §1

The test system of test [15] is hT2R54. In words: hT2R panel inhibition, transient HEK293 G16g44, agonist Ranitidine 5 mM. The test is classed as cell-based, human. Conditions: compound at 25 μM; receptor activated to EC80 with the corresponding agonist. The procedure, abridged:
as §1

For test [16], the target named is hT2R10 (Homo sapiens (Human), UniProt Q9NYW0). In words: hT2R panel inhibition, transient HEK293 G16g44, agonist Strychnine 50 μM. The test is classed as cell-based. The following applies: HEK293, read-out: screening result against bitter receptor 10, compound at 25 μM; receptor activated to EC80 with the corresponding agonist.
Sequence of hT2R10 (Q9NYW0 whole entry): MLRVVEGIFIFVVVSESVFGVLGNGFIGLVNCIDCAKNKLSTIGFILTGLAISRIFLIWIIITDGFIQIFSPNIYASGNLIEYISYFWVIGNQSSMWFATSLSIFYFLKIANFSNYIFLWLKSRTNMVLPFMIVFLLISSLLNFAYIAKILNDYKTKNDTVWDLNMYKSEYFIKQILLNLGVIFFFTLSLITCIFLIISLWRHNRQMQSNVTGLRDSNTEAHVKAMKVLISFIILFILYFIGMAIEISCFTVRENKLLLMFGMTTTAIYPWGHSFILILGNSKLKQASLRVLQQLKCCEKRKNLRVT
In test [17] the target is hT2R51 (Homo sapiens (Human), UniProt P59533). Nature of the test: hT2R panel inhibition, transient HEK293 G16g44, agonist Prop 2.5 μM. The test is classed as cell-based. Conditions: HEK293, compound at 25 μM; receptor activated to EC80 with the corresponding agonist; read-out: screening result against bitter receptor 51. The procedure, abridged: as §1
Sequence of hT2R51 (P59533 whole entry): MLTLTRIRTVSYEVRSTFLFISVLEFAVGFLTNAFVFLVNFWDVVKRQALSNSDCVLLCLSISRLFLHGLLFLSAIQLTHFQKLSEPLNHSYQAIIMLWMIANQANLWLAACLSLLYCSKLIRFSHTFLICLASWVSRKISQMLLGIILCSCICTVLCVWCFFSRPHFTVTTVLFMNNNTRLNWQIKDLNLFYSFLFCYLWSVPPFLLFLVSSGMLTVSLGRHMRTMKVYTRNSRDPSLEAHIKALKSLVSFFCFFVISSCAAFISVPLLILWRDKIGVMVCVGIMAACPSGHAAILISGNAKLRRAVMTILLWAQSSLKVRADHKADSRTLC

Sequence of hT2R7 (Q9NYW3 whole entry): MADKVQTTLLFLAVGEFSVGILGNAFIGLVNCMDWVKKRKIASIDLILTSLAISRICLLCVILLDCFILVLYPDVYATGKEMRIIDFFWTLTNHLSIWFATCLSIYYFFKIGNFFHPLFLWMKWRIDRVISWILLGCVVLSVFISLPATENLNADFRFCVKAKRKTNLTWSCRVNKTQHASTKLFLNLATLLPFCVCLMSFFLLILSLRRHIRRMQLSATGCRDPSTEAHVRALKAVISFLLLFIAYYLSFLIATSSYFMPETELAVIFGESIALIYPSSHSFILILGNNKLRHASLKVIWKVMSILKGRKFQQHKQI
Sequence of hT2R71 (P59536 whole entry): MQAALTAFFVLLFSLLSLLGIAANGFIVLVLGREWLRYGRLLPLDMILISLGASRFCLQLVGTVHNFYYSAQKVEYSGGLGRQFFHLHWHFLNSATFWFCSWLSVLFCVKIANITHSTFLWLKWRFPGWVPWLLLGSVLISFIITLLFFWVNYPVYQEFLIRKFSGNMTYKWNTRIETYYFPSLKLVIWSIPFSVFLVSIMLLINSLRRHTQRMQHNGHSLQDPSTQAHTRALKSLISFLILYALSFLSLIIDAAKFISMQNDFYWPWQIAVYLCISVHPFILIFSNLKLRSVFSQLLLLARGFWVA
T1 sequence (Q9NYV8 whole entry): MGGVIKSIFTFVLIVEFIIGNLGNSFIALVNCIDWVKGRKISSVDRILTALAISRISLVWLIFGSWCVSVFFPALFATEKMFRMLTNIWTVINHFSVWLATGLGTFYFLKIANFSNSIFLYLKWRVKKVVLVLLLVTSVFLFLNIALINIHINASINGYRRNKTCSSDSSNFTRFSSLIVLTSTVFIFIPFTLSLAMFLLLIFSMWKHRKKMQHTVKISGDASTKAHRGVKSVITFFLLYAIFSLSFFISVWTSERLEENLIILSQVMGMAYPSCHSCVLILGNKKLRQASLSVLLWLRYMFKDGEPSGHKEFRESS
Sequence of hT2R4 (Q9NYW5 whole entry): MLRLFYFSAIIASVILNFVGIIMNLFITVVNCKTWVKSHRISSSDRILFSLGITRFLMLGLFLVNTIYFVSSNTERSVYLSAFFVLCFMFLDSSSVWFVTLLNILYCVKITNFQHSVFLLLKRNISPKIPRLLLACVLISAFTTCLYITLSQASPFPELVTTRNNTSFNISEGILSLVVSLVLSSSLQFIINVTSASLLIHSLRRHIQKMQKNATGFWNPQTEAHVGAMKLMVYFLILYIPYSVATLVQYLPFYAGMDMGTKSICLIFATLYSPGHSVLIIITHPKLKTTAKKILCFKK
Sequence of hT2R3 (Q9NYW6 whole entry): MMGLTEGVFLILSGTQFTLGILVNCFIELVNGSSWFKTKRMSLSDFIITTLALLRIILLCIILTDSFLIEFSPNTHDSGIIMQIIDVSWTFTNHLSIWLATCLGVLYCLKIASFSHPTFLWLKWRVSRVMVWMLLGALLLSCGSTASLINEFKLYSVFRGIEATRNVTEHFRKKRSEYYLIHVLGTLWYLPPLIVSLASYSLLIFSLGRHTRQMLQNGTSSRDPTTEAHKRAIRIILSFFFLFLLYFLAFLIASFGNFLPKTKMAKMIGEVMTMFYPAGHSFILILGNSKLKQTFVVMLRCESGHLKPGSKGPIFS

Turning to `COc1cccc(CN(Cc2ccc(C(=O)O)cc2)S(=O)(=O)c2ccc(O)cc2)c1` [Example 5-43, 4-((4-hydroxy-N-(3-methoxybenzyl)phenylsulfonamido)methyl)-benzoic acid], the pIC50 in test [1] was 6.73. Moreover, the inhibition at 25 µM in [2] is 20 to 40%; in [3], 20 to 40%; in [5] it was over 80%; in [6], 40 to 60%; in test [8] it was 20 to 40%; in test [9] it was 60 to 80%. In addition, the inhibition at 25 µM in test [11] is over 80%. Moreover, in [4], the “screening result against bitter receptor 55” value was “+ (20% to 40% inhibition = +)”. In addition, the “screening result against bitter receptor 44” value in test [7] is “+ (20% to 40% inhibition = +)”. The “screening result against bitter receptor 63” value in test [10] is given as “++++ (80% or greater inhibition = ++++)”.

Consider `COc1ccc(CN2C(=O)N(c3ccc(C(=O)O)cc3)C(=O)C2Cc2ccccc2)cc1` (stereo not shown) [Example 5-98, 4-(4-benzyl-3-(4-methoxybenzyl)-2,5-dioxoimidazolidin-1-yl)benzoic acid], for which the inhibition at 25 µM in [2] was 40 to 60%; in test [8] it was 20 to 40%; in test [9] it was 60 to 80%; in test [11] it was over 80%. Moreover, the “screening result against bitter receptor 55” value in test [4] is recorded as “++++ (80% or greater inhibition = ++++)”. In [7], the “screening result against bitter receptor 44” value is listed as “+++ (60% to 80% inhibition = +++)”.

With `Cc1ccc(S(=O)(=O)N(Cc2ccc(F)cc2)Cc2ccc(C(=O)O)cc2)cc1` [Example 5-37, 4-((N-(4-fluorobenzyl)-4-methylphenylsulfonamido)methyl)benzoic acid], in [1], the pIC50 is 7.27. The inhibition at 25 µM in test [2] is 60 to 80%; in test [3] it was 20 to 40%; in test [13], 20 to 40%; in [5], over 80%; in [14], 20 to 40%; in test [8] it was 20 to 40%. In test [9], the inhibition at 25 µM lay in the range of 60 to 80%. In [4], the “screening result against bitter receptor 55” value is reported as “++++ (80% or greater inhibition = ++++)”. For the same compound, in [12], the “screening result against bitter receptor 65” value is recorded as “++ (40% to 60% inhibition = ++)”. Besides, in [10], the “screening result against bitter receptor 63” value is on record as “+ (20% to 40% inhibition = +)”.

Take `COc1ccc(CN(Cc2ccc(OC)c(OC)c2)S(=O)(=O)c2ccc(C(=O)O)cc2)cc1` [Example 5-40, 4-(N-(3,4-dimethoxybenzyl)-N-(4-methoxybenzyl)sulfamoyl)benzoic acid]: the pIC50 in [1] was 5.83. Besides, the inhibition at 25 µM is 20 to 40% in test [2]; 20 to 40% in [3]; 20 to 40% in test [13]; 40 to 60% in [16]; over 80% in test [5]; 40 to 60% in test [6]. Further, the inhibition at 25 µM was 20 to 40% in test [17], 20 to 40% in [8], 60 to 80% in test [9] and over 80% in test [11]. The “screening result against bitter receptor 55” value in test [4] is given as “++++ (80% or greater inhibition = ++++)”. In test [15], the “screening result against bitter receptor 54” value is “+ (20% to 40% inhibition = +)”. Also, the “screening result against bitter receptor 44” value in test [7] is listed as “+++ (60% to 80% inhibition = +++)”. The “screening result against bitter receptor 63” value in test [10] is given as “++++ (80% or greater inhibition = ++++)”.

As to `O=C(O)C1CCC(CN(Cc2ccc(F)cc2)S(=O)(=O)c2ccccn2)CC1` (stereo not shown) [Example 5-53, 4-((N-(4-fluorobenzyl)pyridine-2-sulfonamido)methyl)cyclohexanecarboxylic acid], the inhibition at 25 µM in test [2] fell in the range of 20 to 40%; in test [5] it was 40 to 60%; in test [6] it was 20 to 40%; in [14], 20 to 40%; in [9], 40 to 60%. For the same compound, the “screening result against bitter receptor 63” value in [10] is recorded as “++ (40% to 60% inhibition = ++)”.

For `COc1ccc(CN(Cc2ccc(NC(C)=O)cc2)S(=O)(=O)c2ccc(C(=O)O)cc2)cc1` [Example 5-26, 4-(N-(4-acetamidobenzyl)-N-(4-methoxybenzyl)sulfamoyl)benzoic acid], the inhibition at 25 µM lay within 40 to 60% in [2]; 20 to 40% in [6]; 20 to 40% in [14]; 60 to 80% in test [9]; 20 to 40% in test [11]. For the same compound, the “screening result against bitter receptor 44” value in test [7] is given as “+ (20% to 40% inhibition = +)”. In addition, in test [10], the “screening result against bitter receptor 63” value is on record as “+++ (60% to 80% inhibition = +++)”.

`CC(=O)Nc1ccc(S(=O)(=O)N(Cc2ccccc2)CC2CCC(C(=O)O)CC2)cc1` (stereo not shown) [Example 5-21, 4-((4-acetamido-N-benzylphenylsulfonamido)methyl)-cyclohexanecarboxylic acid]: in [1], the pIC50 was 5.79. The inhibition at 25 µM in test [2] was 20 to 40%; in test [3] it was 20 to 40%; in [5], over 80%; in test [6] it was 20 to 40%; in [8], 20 to 40%; in [9], 20 to 40%. For the same compound, the inhibition at 25 µM in test [11] is 60 to 80%. Also, the “screening result against bitter receptor 55” value in [4] is listed as “+ (20% to 40% inhibition = +)”. In [7], the “screening result against bitter receptor 44” value was “++ (40% to 60% inhibition = ++)”. In addition, in [10], the “screening result against bitter receptor 63” value was “+++ (60% to 80% inhibition = +++)”.

As to `O=C(O)C1CCC(CN(Cc2ccc(F)cc2)S(=O)(=O)Cc2ccccc2)CC1` (stereo not shown) [Example 5-24, 4-((N-(4-fluorobenzyl)-1-phenylmethylsulfonamido)methyl)-cyclohexanecarboxylic acid], the pIC50 in test [1] was 5.02. Moreover, the inhibition at 25 µM in test [2] was 20 to 40%; in test [6], 20 to 40%; in test [14], 20 to 40%; in test [9], 60 to 80%; in test [11] it was over 80%. Further, the “screening result against bitter receptor 55” value in test [4] was “++ (40% to 60% inhibition = ++)”. In addition, in [7], the “screening result against bitter receptor 44” value is given as “+ (20% to 40% inhibition = +)”. Besides, the “screening result against bitter receptor 63” value in [10] is recorded as “+ (20% to 40% inhibition = +)”.
